Experimental findings from ChEMBL document CHEMBL1201862, “PubChem BioAssay data set” (2004) are described below.

Common to all, as to experiment: growth of human tumour cells (NCI), 48 h
Assay [1] concerns K562.
Assay [2] relates to 786-0.
For assay [3], the system named is A549.
In assay [4] the test system is M14.
In assay [5] the test system is UACC-62.
Assay [6] deals with SK-MEL-5.
Assay [7] has as its system HOP-62.
Assay [8] has as its system SK-OV-3.
Assay [9] concerns COLO 205.
In assay [10] the test system is NCI-H522.
In assay [11] the test system is T47D.
Assay [12] has as its system BT-549.
The test system of assay [13] is KM12.
Assay [14] concerns HCT-15.
Assay [15] deals with SR.
Assay [16] concerns NCI-H23.
Assay [17] relates to PC-3.
The subject of assay [18] is RPMI-8226.
For assay [19], the system named is SK-MEL-28.
For assay [20], the system named is LOX IMVI.

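Cells were grown in 96-well plates and exposed to each compound for 48 hours at five concentrations; endpoints were interpolated linearly between bracketing concentrations, or set to the highest concentration if not reached. GI50 is the concentration that inhibits growth by half.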 Calls of active or inactive are those of the source. No stated cut-off is given here; in the data, active = GI50 up to about 1.1 µM and inactive = higher. Where only a bound is given, the exact number is not on record here.

On to `O=C1/C(=C/c2ccc(Cl)cc2)Oc2cc(O)ccc21` [6-HYDROXY-4'-CHLORO AURONE], for which the GI50 is 19.1 µM (inactive) in assay [1]; 33.3 µM (inactive) in assay [2]; 30.1 µM (inactive) in assay [3]; 50.6 µM (inactive) in assay [4]; 34.2 µM (inactive) in assay [5]; 23.4 µM (inactive) in assay [6]. For the same molecule, the GI50 in assay [7] is 32.7 µM (inactive); in assay [8] it was 30.6 µM (inactive); in [9], > 100 µM (inactive); in assay [10], 23.8 µM (inactive); in [11], 37.1 µM (inactive); in assay [12] it was 26.8 µM (inactive). For the same molecule, the GI50 in assay [13] is 38.5 µM (inactive); in assay [14], 32.6 µM; in assay [15], 20.2 µM (inactive); in assay [16], 36.2 µM (inactive); in assay [17] it was 30.2 µM (inactive); in assay [18], 30.6 µM (inactive). In addition, the GI50 in assay [19] was 59.6 µM (inactive).
With `COc1ccc(/C=C2\CC3C4CC=C5C[C@@H](O)CC[C@]5(C)C4CC[C@]3(C)C2=O)cc1OC` (stereo partly drawn), the GI50 in assay [1] is 12.5 µM (inactive); in [2] it was 40.3 µM (inactive); in assay [3] it was 27.9 µM (inactive); in assay [4] it was 65 µM (inactive); in [5] it was 42.9 µM (inactive); in assay [6], 7.05 µM (inactive). Moreover, the GI50 was 44 µM (inactive) in assay [7]; 41.6 µM (inactive) in [8]; 16.3 µM (inactive) in assay [9]; 17.2 µM (inactive) in [10]; 8.28 µM (inactive) in assay [11]; 44.6 µM (inactive) in [12]. Moreover, the GI50 is 32.8 µM (inactive) in assay [13]; 34 µM in assay [14]; 30.8 µM (inactive) in [20]; 42.6 µM (inactive) in assay [16]; 25.9 µM (inactive) in [17]; 10.2 µM (inactive) in assay [18]. Moreover, the GI50 in [19] was 81.1 µM (inactive).
For the molecule `CC1(C)C(C#N)C1C1=C(N2CCOCC2)[C@]2(C)C(OC(=O)c3ccccc3)CC[C@@H]2C1` (stereo partly drawn), the GI50 in assay [1] is 38.5 µM (inactive); in assay [2], > 100 µM (inactive); in assay [3] it was > 100 µM (inactive); in [4] it was > 100 µM (inactive); in assay [5], > 100 µM (inactive); in assay [6], 29.8 µM (inactive). Moreover, the GI50 is > 100 µM (inactive) in [7]; > 100 µM (inactive) in assay [8]; 95.3 µM (inactive) in assay [9]; > 100 µM (inactive) in assay [10]; 35.5 µM (inactive) in [11]; 55.1 µM (inactive) in [12]. Also, the GI50 in assay [13] was > 100 µM (inactive); in assay [14] it was > 100 µM; in assay [15], 61.5 µM (inactive); in assay [16], > 100 µM (inactive); in assay [17], > 100 µM (inactive); in assay [19], > 100 µM (inactive).
As to `COC(=O)Nc1nc2cc(S(=O)(=O)NC(CC(C)C)C(=O)OC)ccc2[nH]1` (stereo not drawn), the GI50 in assay [1] was 3.06 µM (inactive); in assay [2] it was 3.14 µM (inactive); in assay [3], 7.29 µM (inactive); in assay [4] it was 1.8 µM (inactive); in [5] it was 4.01 µM (inactive); in assay [6], 0.7 µM (active). Further, the GI50 is 3.48 µM (inactive) in assay [7]; 4.53 µM (inactive) in [8]; 3.22 µM (inactive) in assay [9]; 0.197 µM (active) in assay [10]; 4.19 µM (inactive) in [11]; 35.7 µM (inactive) in assay [12]. In addition, the GI50 in assay [13] is 2.19 µM (inactive); in assay [14] it was 2.81 µM; in [20] it was 3.63 µM (inactive); in assay [16] it was 3.25 µM (inactive); in assay [17] it was 2.37 µM (inactive); in [18], 3.28 µM (inactive). The GI50 in [19] is 4.35 µM (inactive).
As to `Cc1cccc2nc3c(=O)[nH]c(=O)nc-3n(C)c12`, the GI50 in assay [1] was 46.6 µM (inactive); in assay [2], 99.3 µM (inactive); in assay [3] it was 84.7 µM (inactive); in [4], 37.8 µM (inactive); in [5], 31.9 µM (inactive); in assay [6], 29.6 µM (inactive). Besides, the GI50 in assay [7] is 79.6 µM (inactive); in assay [8], > 100 µM (inactive); in [9], 30.2 µM (inactive); in assay [10], 29.2 µM (inactive); in assay [11] it was 53.3 µM (inactive); in assay [12] it was 84.9 µM (inactive). For the same molecule, the GI50 in assay [13] was 31.9 µM (inactive); in assay [14], 52.8 µM; in assay [20] it was 54 µM (inactive); in assay [16], 39.1 µM (inactive); in assay [17], 66.7 µM (inactive); in [18], 29.7 µM (inactive). In addition, the GI50 in assay [19] is > 100 µM (inactive).
As to `O=C(NP(=O)(N1CC1)N1CC1)c1cc(I)ccc1I` [DIIODBENZOTEPH], the GI50 in assay [1] is 59 µM (inactive); in assay [2], 21.9 µM (inactive); in assay [3] it was 23.6 µM (inactive); in assay [4] it was 34.8 µM (inactive); in [5], 10.4 µM (inactive); in assay [6] it was 43.1 µM (inactive). In addition, the GI50 is 19.1 µM (inactive) in [7]; 25.6 µM (inactive) in assay [8]; > 91.4 µM (inactive) in [9]; 27.3 µM (inactive) in assay [10]; 22.9 µM (inactive) in assay [11]; 53.7 µM (inactive) in [12]. Further, the GI50 in [13] was > 91.2 µM (inactive); in [14], 69.3 µM; in assay [20], 12.4 µM (inactive); in [16], 10.9 µM (inactive); in assay [17], > 67.3 µM (inactive); in assay [18], 52.7 µM (inactive). The GI50 in assay [19] is > 95.3 µM (inactive).
As for `CC1(C)CC(O)CC(C)(C)N1O` [TEMPOL HYDROXYLAMINE], the GI50 in [1], in [2], in assay [3], in assay [4], in assay [5] and in assay [6] was > 100 µM (inactive) each time. Besides, the GI50 in [7], in assay [8], in assay [9], in [11], in assay [12] and in assay [13] was > 100 µM (inactive) throughout. Besides, the GI50 is > 100 µM in assay [14]; > 100 µM (inactive) in [15]; > 100 µM (inactive) in assay [17]; > 100 µM (inactive) in assay [18]; > 100 µM (inactive) in assay [19].
As for `Cc1nc(C)c(C(=O)NNC(=O)Cc2ccccc2)cc1C(=O)NNC(=O)Cc1ccccc1`, the GI50 in [1], in assay [2], in [3], in [4], in [5] and in [6] was > 100 µM (inactive) throughout. Besides, the GI50 in [7], in assay [8], in assay [9], in assay [10], in [11] and in assay [12] was > 100 µM (inactive) throughout. Moreover, the GI50 in assay [13] is > 100 µM (inactive); in assay [14], > 100 µM; in assay [20], > 100 µM (inactive); in [16] it was > 100 µM (inactive); in assay [17], > 100 µM (inactive); in assay [18], > 100 µM (inactive).
